Data published in paper PMC4457528, “Identification of Novel Small Molecule Inhibitors of Oncogenic RET Kinase” (PLoS ONE, 2015).
Where two headings read alike, the source gives them in different places.

Experiments:
Test in all cases: KinomeScan kinase panel, single concentration 10 µM
Format in all cases: binding
KinomeScan kinase panel [1] = molecular target: T1, KinomeScan kinase panel (Homo sapiens, UniProt Q8IY84); settings: NIM1, 10 µM; read-out: score (%)
T1 construct: purchased DiscoveRx (KinomeScan)

KinomeScan kinase panel [2] = molecular target: T2, KinomeScan kinase panel (Homo sapiens, UniProt Q92630); settings: DYRK2, 10 µM; read-out: score (%)
T2 construct: purchased DiscoveRx (KinomeScan)

KinomeScan kinase panel [3] = molecular target: T3, KinomeScan kinase panel (Homo sapiens, UniProt P10721, L576P); settings: KIT(L576P), 10 µM; read-out: score (%)
T3 construct: purchased DiscoveRx (KinomeScan)

KinomeScan kinase panel [4] = molecular target: T4, KinomeScan kinase panel (Homo sapiens, UniProt P42679); settings: CTK, 10 µM; read-out: score (%)
T4 construct: purchased DiscoveRx (KinomeScan)

KinomeScan kinase panel [5] = molecular target: T5, KinomeScan kinase panel (Homo sapiens, UniProt P42336, H1047L); settings: PIK3CA(H1047L), 10 µM; read-out: score (%)
T5 construct: purchased DiscoveRx (KinomeScan)

KinomeScan kinase panel [6] = molecular target: T6, KinomeScan kinase panel (Homo sapiens, UniProt Q6ZN16); settings: MAP3K15, 10 µM; read-out: score (%)
T6 construct: purchased DiscoveRx (KinomeScan)

KinomeScan kinase panel [7] = molecular target: T7, KinomeScan kinase panel (Homo sapiens, UniProt Q9Y2H9); settings: MAST1, 10 µM; read-out: score (%)
T7 construct: purchased DiscoveRx (KinomeScan)

KinomeScan kinase panel [8] = molecular target: T8, KinomeScan kinase panel (Homo sapiens, UniProt P42336, H1047Y); settings: PIK3CA(H1047Y), 10 µM; read-out: score (%)
T8 construct: purchased DiscoveRx (KinomeScan)

KinomeScan kinase panel [9] = molecular target: T9, KinomeScan kinase panel (Homo sapiens, UniProt Q52WX2); settings: kinase SBK1; 10 µM; read-out: score (%)
T9 construct: purchased DiscoveRx (KinomeScan)

KinomeScan kinase panel [10] = molecular target: T10, KinomeScan kinase panel (Homo sapiens, UniProt Q9H2X6); settings: HIPK2, 10 µM; read-out: score (%)
T10 construct: purchased DiscoveRx (KinomeScan)

KinomeScan kinase panel [11] = molecular target: T11, KinomeScan kinase panel (Homo sapiens, UniProt Q9UPZ9); settings: ICK, 10 µM; read-out: score (%)
T11 construct: purchased DiscoveRx (KinomeScan)

KinomeScan kinase panel [12] = molecular target: T12, KinomeScan kinase panel (Homo sapiens, UniProt Q56UN5); settings: kinase YSK4; 10 µM; read-out: score (%)
T12 construct: purchased DiscoveRx (KinomeScan)

KinomeScan kinase panel [13] = molecular target: T13, KinomeScan kinase panel (Homo sapiens, UniProt P42336, M1043I); settings: PIK3CA(M1043I), 10 µM; read-out: score (%)
T13 construct: purchased DiscoveRx (KinomeScan)

KinomeScan kinase panel [14] = molecular target: T14, KinomeScan kinase panel (Homo sapiens, UniProt P42336, Q546K); settings: PIK3CA(Q546K), 10 µM; read-out: score (%)
T14 construct: purchased DiscoveRx (KinomeScan)

KinomeScan kinase panel [15] = molecular target: T15, KinomeScan kinase panel (Homo sapiens, UniProt O43283); settings: LZK, 10 µM
T15 construct: purchased DiscoveRx (KinomeScan)

KinomeScan kinase panel [16] = molecular target: T16, KinomeScan kinase panel (Homo sapiens, UniProt P20794); settings: MAK, 10 µM; read-out: score (%)
T16 construct: purchased DiscoveRx (KinomeScan)

KinomeScan kinase panel [17] = molecular target: T17, KinomeScan kinase panel (Homo sapiens, UniProt P08581, Y1235D); settings: MET(Y1235D), 10 µM
T17 construct: purchased DiscoveRx (KinomeScan)

KinomeScan kinase panel [18] = molecular target: T18, KinomeScan kinase panel (Homo sapiens, UniProt P00533, L858R/T790M); settings: EGFR(L858R.T790M), 10 µM
T18 construct: purchased DiscoveRx (KinomeScan)

KinomeScan kinase panel [19] = molecular target: T19, KinomeScan kinase panel (Homo sapiens, UniProt O75460); settings: ERN1, 10 µM; read-out: score (%)
T19 construct: purchased DiscoveRx (KinomeScan)

KinomeScan kinase panel [20] = molecular target: T20, KinomeScan kinase panel (Homo sapiens, UniProt Q13523); settings: read-out: score (%)
T20 construct: purchased DiscoveRx (KinomeScan)

KinomeScan kinase panel [21] = molecular target: T21, KinomeScan kinase panel (Homo sapiens, UniProt Q13464); settings: read-out: score (%)
T21 construct: purchased DiscoveRx (KinomeScan)

KinomeScan kinase panel [22] = molecular target: T22, KinomeScan kinase panel (Homo sapiens, UniProt P32298); settings: GRK4, 10 µM; read-out: score (%)
T22 construct: purchased DiscoveRx (KinomeScan)

KinomeScan kinase panel [23] = molecular target: T23, KinomeScan kinase panel (Homo sapiens, UniProt P08581, M1250T); settings: MET(M1250T), 10 µM
T23 construct: purchased DiscoveRx (KinomeScan)

KinomeScan kinase panel [24] = molecular target: T24, KinomeScan kinase panel (Homo sapiens, UniProt Q8WTQ7); settings: GRK7, 10 µM; read-out: score (%)
T24 construct: purchased DiscoveRx (KinomeScan)

KinomeScan kinase panel [25] = molecular target: T25, KinomeScan kinase panel (Homo sapiens, UniProt P57058); settings: HUNK, 10 µM; read-out: score (%)
T25 construct: purchased DiscoveRx (KinomeScan)

KinomeScan kinase panel [26] = molecular target: T26, KinomeScan kinase panel (Homo sapiens, UniProt Q15208); settings: NDR1, 10 µM; read-out: score (%)
T26 construct: purchased DiscoveRx (KinomeScan)

KinomeScan kinase panel [27] = molecular target: T27, KinomeScan kinase panel (Homo sapiens, UniProt P42336, E545A); settings: PIK3CA(E545A), 10 µM; read-out: score (%)
T27 construct: purchased DiscoveRx (KinomeScan)

KinomeScan kinase panel [28] = molecular target: T28, KinomeScan kinase panel (Homo sapiens, UniProt Q9Y2K2); settings: 10 µM
T28 construct: purchased DiscoveRx (KinomeScan)

KinomeScan kinase panel [29] = molecular target: T29, KinomeScan kinase panel (Homo sapiens, UniProt Q9NYY3)
T29 construct: purchased DiscoveRx (KinomeScan)

KinomeScan kinase panel [30] = molecular target: T30, KinomeScan kinase panel (Homo sapiens, UniProt Q9UBF8); settings: PIK4CB, 10 µM; read-out: score (%)
T30 construct: purchased DiscoveRx (KinomeScan)

KinomeScan kinase panel [31] = molecular target: T31, KinomeScan kinase panel (Homo sapiens, UniProt P42336, C420R); settings: PIK3CA(C420R), 10 µM; read-out: score (%)
T31 construct: purchased DiscoveRx (KinomeScan)

KinomeScan kinase panel [32] = molecular target: T32, KinomeScan kinase panel (Homo sapiens, UniProt Q8IVW4); settings: CDKL3, 10 µM; read-out: score (%)
T32 construct: purchased DiscoveRx (KinomeScan)

KinomeScan kinase panel [33] = molecular target: T33, KinomeScan kinase panel (Homo sapiens, UniProt Q9Y6M4); settings: CSNK1G3, 10 µM
T33 construct: purchased DiscoveRx (KinomeScan)
T33 sequence (Q9Y6M4 whole entry): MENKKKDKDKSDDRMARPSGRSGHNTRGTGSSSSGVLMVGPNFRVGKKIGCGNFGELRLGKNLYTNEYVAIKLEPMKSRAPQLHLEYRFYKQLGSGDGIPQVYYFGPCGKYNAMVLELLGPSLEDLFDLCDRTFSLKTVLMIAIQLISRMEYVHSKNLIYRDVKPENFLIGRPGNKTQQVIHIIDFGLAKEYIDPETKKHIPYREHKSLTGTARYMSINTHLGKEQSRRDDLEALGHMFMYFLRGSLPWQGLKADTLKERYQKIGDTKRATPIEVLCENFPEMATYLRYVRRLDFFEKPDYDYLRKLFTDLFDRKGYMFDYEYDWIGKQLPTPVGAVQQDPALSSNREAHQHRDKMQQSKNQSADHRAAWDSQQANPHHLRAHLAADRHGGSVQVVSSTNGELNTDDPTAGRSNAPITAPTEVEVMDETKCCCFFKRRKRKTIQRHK

T17 sequence (P08581 25-1390 Y1235D): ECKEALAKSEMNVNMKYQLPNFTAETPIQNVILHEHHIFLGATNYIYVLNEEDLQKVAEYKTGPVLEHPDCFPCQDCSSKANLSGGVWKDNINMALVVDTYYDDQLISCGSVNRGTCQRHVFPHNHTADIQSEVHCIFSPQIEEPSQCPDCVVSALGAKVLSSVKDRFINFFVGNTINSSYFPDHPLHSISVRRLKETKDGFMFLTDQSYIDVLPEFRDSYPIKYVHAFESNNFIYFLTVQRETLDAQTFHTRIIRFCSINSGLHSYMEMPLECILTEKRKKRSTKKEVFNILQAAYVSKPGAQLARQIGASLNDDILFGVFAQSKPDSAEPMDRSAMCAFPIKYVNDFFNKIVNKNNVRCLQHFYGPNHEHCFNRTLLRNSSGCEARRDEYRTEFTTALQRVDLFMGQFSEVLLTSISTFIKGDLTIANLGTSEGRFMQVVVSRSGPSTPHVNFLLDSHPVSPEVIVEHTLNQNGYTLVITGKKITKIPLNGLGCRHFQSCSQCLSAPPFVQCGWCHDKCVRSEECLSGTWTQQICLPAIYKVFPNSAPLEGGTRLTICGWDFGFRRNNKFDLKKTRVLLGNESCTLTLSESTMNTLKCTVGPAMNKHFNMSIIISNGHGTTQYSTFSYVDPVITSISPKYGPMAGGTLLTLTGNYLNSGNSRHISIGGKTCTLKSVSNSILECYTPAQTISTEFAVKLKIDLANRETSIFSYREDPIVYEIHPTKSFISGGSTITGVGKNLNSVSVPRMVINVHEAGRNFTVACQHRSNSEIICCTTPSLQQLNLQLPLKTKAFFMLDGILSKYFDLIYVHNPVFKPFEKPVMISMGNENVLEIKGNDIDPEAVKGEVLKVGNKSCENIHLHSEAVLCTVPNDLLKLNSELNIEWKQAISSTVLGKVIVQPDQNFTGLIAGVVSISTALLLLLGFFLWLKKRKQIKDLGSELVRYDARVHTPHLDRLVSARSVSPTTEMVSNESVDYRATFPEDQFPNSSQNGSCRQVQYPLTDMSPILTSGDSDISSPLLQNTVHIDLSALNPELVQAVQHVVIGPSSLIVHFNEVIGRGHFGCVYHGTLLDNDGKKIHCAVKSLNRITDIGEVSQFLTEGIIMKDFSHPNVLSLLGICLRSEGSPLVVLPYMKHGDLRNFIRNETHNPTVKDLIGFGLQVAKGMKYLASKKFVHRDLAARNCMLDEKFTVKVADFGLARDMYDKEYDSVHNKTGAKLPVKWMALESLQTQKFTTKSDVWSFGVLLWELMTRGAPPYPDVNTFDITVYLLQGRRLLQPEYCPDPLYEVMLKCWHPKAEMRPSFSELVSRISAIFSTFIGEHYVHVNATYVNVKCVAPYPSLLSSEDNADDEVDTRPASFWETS
T8 sequence (P42336 whole entry H1047Y): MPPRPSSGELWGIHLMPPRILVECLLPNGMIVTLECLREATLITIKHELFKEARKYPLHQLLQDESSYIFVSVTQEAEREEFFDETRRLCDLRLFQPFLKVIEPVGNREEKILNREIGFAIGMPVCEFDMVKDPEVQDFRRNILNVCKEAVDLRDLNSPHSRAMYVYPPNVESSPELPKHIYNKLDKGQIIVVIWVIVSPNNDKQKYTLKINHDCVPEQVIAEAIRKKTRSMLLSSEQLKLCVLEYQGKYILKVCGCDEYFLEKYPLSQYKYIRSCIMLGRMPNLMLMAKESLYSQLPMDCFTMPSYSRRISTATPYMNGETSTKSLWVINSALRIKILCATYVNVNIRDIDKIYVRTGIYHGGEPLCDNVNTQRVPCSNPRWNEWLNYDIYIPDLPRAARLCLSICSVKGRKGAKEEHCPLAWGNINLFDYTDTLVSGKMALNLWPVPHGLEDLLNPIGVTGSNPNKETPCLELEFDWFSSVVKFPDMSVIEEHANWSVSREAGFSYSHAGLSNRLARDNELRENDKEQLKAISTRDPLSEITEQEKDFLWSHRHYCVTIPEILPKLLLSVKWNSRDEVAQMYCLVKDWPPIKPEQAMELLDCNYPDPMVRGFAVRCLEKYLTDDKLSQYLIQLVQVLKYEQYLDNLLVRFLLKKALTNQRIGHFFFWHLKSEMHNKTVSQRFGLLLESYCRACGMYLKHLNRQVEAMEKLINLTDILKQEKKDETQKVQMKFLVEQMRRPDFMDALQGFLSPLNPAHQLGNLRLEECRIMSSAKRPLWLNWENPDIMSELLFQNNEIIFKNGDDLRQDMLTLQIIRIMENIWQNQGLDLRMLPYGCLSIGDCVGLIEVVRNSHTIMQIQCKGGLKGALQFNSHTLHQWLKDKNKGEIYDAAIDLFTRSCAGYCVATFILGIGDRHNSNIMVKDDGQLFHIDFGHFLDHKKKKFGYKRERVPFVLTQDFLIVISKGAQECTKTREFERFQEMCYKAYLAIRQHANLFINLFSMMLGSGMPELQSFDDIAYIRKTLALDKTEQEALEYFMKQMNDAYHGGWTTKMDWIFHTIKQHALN
T10 sequence (Q9H2X6 whole entry): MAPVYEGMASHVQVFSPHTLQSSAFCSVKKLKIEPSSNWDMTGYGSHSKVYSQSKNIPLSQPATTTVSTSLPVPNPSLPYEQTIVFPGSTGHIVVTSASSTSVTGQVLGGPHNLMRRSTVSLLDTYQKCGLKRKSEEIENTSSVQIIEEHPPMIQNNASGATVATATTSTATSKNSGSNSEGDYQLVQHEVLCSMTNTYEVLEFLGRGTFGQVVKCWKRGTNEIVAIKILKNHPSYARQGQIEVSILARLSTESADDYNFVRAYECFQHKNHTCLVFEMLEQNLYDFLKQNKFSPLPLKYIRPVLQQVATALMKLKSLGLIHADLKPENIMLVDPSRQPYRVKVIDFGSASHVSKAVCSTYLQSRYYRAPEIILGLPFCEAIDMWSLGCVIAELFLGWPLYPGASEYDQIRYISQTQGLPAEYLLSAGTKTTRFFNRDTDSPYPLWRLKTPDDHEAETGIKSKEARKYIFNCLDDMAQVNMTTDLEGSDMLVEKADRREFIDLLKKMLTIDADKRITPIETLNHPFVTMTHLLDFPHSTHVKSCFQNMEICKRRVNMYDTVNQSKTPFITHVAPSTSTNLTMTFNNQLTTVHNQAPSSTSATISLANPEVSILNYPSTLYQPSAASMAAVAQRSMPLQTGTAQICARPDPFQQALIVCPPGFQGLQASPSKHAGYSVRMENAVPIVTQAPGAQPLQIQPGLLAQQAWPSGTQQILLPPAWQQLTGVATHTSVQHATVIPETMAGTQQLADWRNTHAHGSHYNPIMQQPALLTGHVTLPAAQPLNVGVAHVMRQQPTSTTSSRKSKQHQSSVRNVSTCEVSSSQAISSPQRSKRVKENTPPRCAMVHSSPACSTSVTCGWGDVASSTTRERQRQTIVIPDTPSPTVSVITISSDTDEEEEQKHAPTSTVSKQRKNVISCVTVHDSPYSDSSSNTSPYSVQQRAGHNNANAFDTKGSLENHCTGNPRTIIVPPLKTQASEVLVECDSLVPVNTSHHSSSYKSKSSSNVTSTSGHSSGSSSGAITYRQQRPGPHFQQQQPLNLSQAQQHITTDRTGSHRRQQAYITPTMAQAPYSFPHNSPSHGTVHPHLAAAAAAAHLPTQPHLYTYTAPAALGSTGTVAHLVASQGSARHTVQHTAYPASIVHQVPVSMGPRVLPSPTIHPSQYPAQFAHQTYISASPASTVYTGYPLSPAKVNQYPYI
T4 sequence (P42679 whole entry): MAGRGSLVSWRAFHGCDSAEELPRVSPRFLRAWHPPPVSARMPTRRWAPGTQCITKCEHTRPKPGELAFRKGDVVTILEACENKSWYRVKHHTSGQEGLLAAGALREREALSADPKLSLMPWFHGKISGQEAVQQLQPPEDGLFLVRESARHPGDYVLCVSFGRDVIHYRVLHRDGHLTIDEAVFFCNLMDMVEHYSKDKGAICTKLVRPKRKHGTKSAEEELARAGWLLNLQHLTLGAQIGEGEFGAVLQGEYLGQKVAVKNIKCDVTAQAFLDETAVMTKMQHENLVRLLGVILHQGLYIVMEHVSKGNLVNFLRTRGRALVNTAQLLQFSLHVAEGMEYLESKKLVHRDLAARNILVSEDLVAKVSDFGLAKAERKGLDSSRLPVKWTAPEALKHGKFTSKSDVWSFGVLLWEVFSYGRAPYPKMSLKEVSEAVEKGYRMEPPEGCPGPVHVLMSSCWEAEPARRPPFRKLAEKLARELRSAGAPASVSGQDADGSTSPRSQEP
T9 sequence (Q52WX2 whole entry): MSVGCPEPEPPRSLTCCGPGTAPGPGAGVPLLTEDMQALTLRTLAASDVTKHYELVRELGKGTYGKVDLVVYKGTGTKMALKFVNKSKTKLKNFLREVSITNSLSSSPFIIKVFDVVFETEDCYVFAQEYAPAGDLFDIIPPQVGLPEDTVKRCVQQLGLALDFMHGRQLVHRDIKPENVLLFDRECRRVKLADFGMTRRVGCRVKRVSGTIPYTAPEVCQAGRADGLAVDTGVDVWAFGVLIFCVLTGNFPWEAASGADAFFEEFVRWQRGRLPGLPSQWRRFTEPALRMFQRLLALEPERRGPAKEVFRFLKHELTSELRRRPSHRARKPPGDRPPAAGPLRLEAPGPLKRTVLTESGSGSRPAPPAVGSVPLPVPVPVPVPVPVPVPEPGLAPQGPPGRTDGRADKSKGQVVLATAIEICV
T13 sequence (P42336 whole entry M1043I): as the sequence (P42336 whole entry H1047Y) above, with M1043I, Y1047H counted along it
T14 sequence (P42336 whole entry Q546K): as the sequence (P42336 whole entry H1047Y) above, with Q546K, Y1047H counted along it

Structure (SMILES)	remaining binding at 10 µM (KinomeScan kinase panel [1])	remaining binding at 10 µM (KinomeScan kinase panel [2])	remaining binding at 10 µM (KinomeScan kinase panel [3])	remaining binding at 10 µM (KinomeScan kinase panel [4])	remaining binding at 10 µM (KinomeScan kinase panel [5])	remaining binding at 10 µM (KinomeScan kinase panel [6])	remaining binding at 10 µM (KinomeScan kinase panel [7])	remaining binding at 10 µM (KinomeScan kinase panel [8])	remaining binding at 10 µM (KinomeScan kinase panel [9])	remaining binding at 10 µM (KinomeScan kinase panel [10])	remaining binding at 10 µM (KinomeScan kinase panel [11])	remaining binding at 10 µM (KinomeScan kinase panel [12])	remaining binding at 10 µM (KinomeScan kinase panel [13])	remaining binding at 10 µM (KinomeScan kinase panel [14])	score (%) (KinomeScan kinase panel [15])	remaining binding at 10 µM (KinomeScan kinase panel [16])	score (%) (KinomeScan kinase panel [17])	score (%) (KinomeScan kinase panel [18])	remaining binding at 10 µM (KinomeScan kinase panel [19])	remaining binding at 10 µM (KinomeScan kinase panel [22])	further results
CCN1CCN(Cc2ccc(NC(=O)c3ccc(C)c(NC(=O)c4cncc(-c5cccs5)c4)c3)cc2C(F)(F)F)CC1 [ALW-II-41-27]	> 30%	18%	0%	> 30%	> 30%	> 30%	> 30%	> 30%	> 30%	> 30%	> 30%	21%	> 30%	> 30%	15%	> 30%	nb (Hits values higher than 30% were considered negative (no binding: nb))	nb (Hits values higher than 30% were considered negative (no binding: nb))	1.4%	> 30%	remaining binding at 10 µM (KinomeScan kinase panel [20]; PRP4, 10 µM): > 30%; remaining binding at 10 µM (KinomeScan kinase panel [21]; ROCK1, 10 µM): 0%; score (%) (KinomeScan kinase panel [23]): nb (Hits values higher than 30% were considered negative (no binding: nb)); remaining binding at 10 µM (KinomeScan kinase panel [24]): 16%; remaining binding at 10 µM (KinomeScan kinase panel [25]): > 30%; remaining binding at 10 µM (KinomeScan kinase panel [26]): > 30%; remaining binding at 10 µM (KinomeScan kinase panel [27]): > 30%; score (%) (KinomeScan kinase panel [28]; QSK): nb (Hits values higher than 30% were considered negative (no binding: nb)); score (%) (KinomeScan kinase panel [29]; PLK2, 10 µM): nb (Hits values higher than 30% were considered negative (no binding: nb)); remaining binding at 10 µM (KinomeScan kinase panel [30]): > 30%; remaining binding at 10 µM (KinomeScan kinase panel [31]): > 30%; remaining binding at 10 µM (KinomeScan kinase panel [32]): 9.8%
CCN1CCN(Cc2ccc(NC(=O)c3ccc(C)c(/C=C/c4cnc5[nH]ccc5c4Cl)c3)cc2C(F)(F)F)CC1 [HG-6-63-01, (E)-3-(2-(4-chloro-1H-pyrrolo[2,3-b]pyridin-5-yl)vinyl)-N-(4-((4-ethylpiperazin-1-yl)methyl)-3-(trifluoromethyl)phenyl)-4-methylbenzamide]																					score (%) (KinomeScan kinase panel [33]): nb (Hits values higher than 30% were considered negative (no binding: nb))
CCN1CCN(Cc2ccc(NC(=O)c3ccc(C)c(C#Cc4cccnc4)c3)cc2C(F)(F)F)CC1 [XMD15-44]	97%	> 30%	0%	> 30%	100%	> 30%	> 30%	81%	88%	> 30%	> 30%	0.1%	83%	100%	7.4%	9%	nb (Hits values higher than 30% were considered negative (no binding: nb))	nb (Hits values higher than 30% were considered negative (no binding: nb))	> 30%	> 30%	remaining binding at 10 µM (KinomeScan kinase panel [20]; kinase PRP4, 10 µM): 54%; remaining binding at 10 µM (KinomeScan kinase panel [21]; kinase ROCK1, 10 µM): 43%; score (%) (KinomeScan kinase panel [23]): nb (Hits values higher than 30% were considered negative (no binding: nb)); remaining binding at 10 µM (KinomeScan kinase panel [24]): > 30%; remaining binding at 10 µM (KinomeScan kinase panel [25]): > 30%; remaining binding at 10 µM (KinomeScan kinase panel [26]): 4%; remaining binding at 10 µM (KinomeScan kinase panel [27]): 93%; score (%) (KinomeScan kinase panel [28]; kinase QSK): 70%; score (%) (KinomeScan kinase panel [29]; kinase PLK2, 10 µM): 100%; remaining binding at 10 µM (KinomeScan kinase panel [30]): 100%; remaining binding at 10 µM (KinomeScan kinase panel [31]): 72%; remaining binding at 10 µM (KinomeScan kinase panel [32]): 0.65%; score (%) (KinomeScan kinase panel [33]): nb (Hits values higher than 30% were considered negative (no binding: nb))
